Reference: patent US20040259865A1, “Pyrimidone compounds and pharmaceutical compositions containing the same” (priority 2001, published 2004)
Where two headings read alike, the source gives them in different places.

What was measured:
colon tract [1] = assay: Inhibitory effect of NECA on Carbachol-stimulated contraction of the colon tract; set-up: species or system rat; conditions: Carbachol 1.44 μM (singly added) = 100%
Protocol: (§1) Surrounding connective tissues were removed, and the intestinal tract was cut at positions apart by 1.5 cm from the rectum and by 3 cm from the cecum, to give a colon tract of about 3 cm in full length. Both the terminals of the colon tract were pinched respectively with Serrefines (trade name) to which a string had been connected, and the colon tract with the side of the cecum facing upward was immediately suspended in a Magnus tube filled with Tyrode solution previously warmed at 37° C., and then equilibrated by bubbling with a gas (O2/CO2=95/5). The string connected to the Serrefines (trade name) at the side of the cecum was suspended, and the change in the length of the colon tract was detected with an amplifier for strain pressure (Nihon Kohden Corporation).
(§2) In the experiment, 3 samples were used.

[2] = system: guinea pig distal colon longitudinal muscles; conditions: cited from earlier work; for EC50: KCl in the presence of tetrodotoxin, read-out: Relaxing action EC50
SD IGS rats [3] = assay: Defecation-promoting action in rat (Test Example 2); format: in vivo; conditions: for The number of fecalpellets/3 rats: 180 minutes after administration
Protocol: (§3) SD IGS rats (6-weeks-old, from Charles River) were placed in cages (3 animals/cage) and preliminarily allowed food and water ad libitum and raised for 1 week. On the day of the experiment, their weight was measured, a water-absorbing sheet was placed below each cage, and the animals were fasted but allowed water ad libitum throughout the experiment. Three hours after fasting was initiated, the fecal pellets were recovered from each cage and observed for abnormality before the experiment, and then the compound suspended or dissolved in 0.5% (W/V) methyl cellulose (MC) was orally administered into each rat in a dose of 5 ml/kg. On one hand, 0.5% (W/V) MC only was orally given to the control group. After administering the compound, the rats were returned to the cage provided with anew water-absorbing sheet of known weight, and 180 minutes after the administration, the fecal pellets on the water-absorbing sheet were recovered from each cage, and the external appearance was observed, and the number of fecal pellets was counted. The number of fecal pellets is expressed per each cage (Table 4). After the fecal pellets were recovered, the water-absorbing sheet was weighed, and the weight determined by subtracting the initial weight of the water-adsorbing sheet from the weight after the experiment was regarded as the volume of urine and expressed as the volume of urine per 100 g of the body weight (Table 4).

[4] = Urine volume / diuretic action in rat (Test Example 2); format: in vivo; conditions: for Urine Volume (g/100 g body weight): 180 minutes
Protocol: as §3

SD IGS rats [5] = assay: Contribution of A2b inhibition to defecation-promoting action (Test Example 3); format: in vivo, rat; conditions: 180 minutes
Protocol: as §3
After administering the compounds, the rats were returned to the cage under which a new water-absorbing sheet had been installed, and after 180 minutes, the fecal pellets on the water-absorbing sheet were recovered from each cage, and the outward appearance was observed and the number of fecal pellets was counted. The number of fecal pellets is expressed per cage (Table 5).

SD IGS rats [6] = assay: Evaluation of defecation-promoting action (Tables 8 and 10); format: in vivo, rat
From the text: For example, the defecation-promoting actions of 8-phenyltheophylline (“8-PT” in the table below) and 5-[6-amino-8-(3-fluorophenyl)-9H-9-purinyl]-1-methyl-1,2-di hydro-2-pyridinone (Compound II in the table below) disclosed in Example Number 5 described in WO 2001/2400 were as shown below. 8-PT can be easily produced according to the description of Drug Development Research 47: 45-53 (1999), or is easily available as a commercial product (in this test, it was purchased from Sigma).
That is, SD IGS rats (6- to 7-weeks-old, from Charles River) were placed in cages (3 animals/cage) and preliminarily allowed food and water ad libitum and raised for 1 week. On the day of the experiment, their weight was measured, a water-absorbing sheet was placed below each cage, and the animals were fasted but allowed water ad libitum throughout the experiment. Thee hours after fasting was initiated, the fecal pellets were recovered from each cage and observed for abnormality before the experiment, and then the compound suspended in 0.5% (w/v) methyl cellulose (MC) was orally administered in a dose of 5 ml/kg. On one hand, 0.5% (w/v) MC only was orally given to the control group. After administration of the compound, the rats were returned to the cage provided with a new water-absorbing sheet, and 180 minutes after the administration, the fecal pellets on the water-absorbing sheet were recovered from each cage, and the external appearance was observed, and the number of fecal pellets was counted. The number of fecal pellets is expressed per each cage.

[7] = system: guinea pig distal colon longitudinal muscles; conditions: electrical stimulation, cited from earlier work; for pA2 value of the antagonistic action: against relaxing action of NECA
colon tract [8] = assay: Inhibitory effect of adenosine receptor antagonist on suppressing action of NECA on Carbachol-stimulated contraction of the colon tract; set-up: species or system rat; conditions: for Contraction (%) Mean: Carbachol 0.3 μM + NECA 1 μM = 0%, Carbachol 0.3 μM = 100%
Protocol: as §1, with “The abdomen of a rat under anesthesia with ether was opened, and from the rectum to the cecum was excised therefrom and soaked in ice-cooled Tyrode solution (containing 136 mM NaCl, 2.7 mM KCl, 0.4 mM NaH2PO4.2H2O, 5.6 mM glucose, 11.9 mM NaHCO3, 1 mM MgCl2.6H2O, 1.8 mM CaCl2). Surrounding” for “Surrounding”
as §2

colon tract [9] = assay: Contraction of the colon tract with Carbachol; set-up: species or system rat
Protocol: as §1, with “The abdomen of a rat under anesthesia with ether was opened, and from the rectum to the cecum was excised therefrom and soaked in ice-cooled Tyrode solution (containing 136 mM NaCl, 2.7 mM KCl, 0.4 mM NaH2PO4.2H2O, 5.6 mM glucose, 11.9 mM NaHCO3, 1 mM MgCl2.6H2O, 1.8 mM CaCl2). Surrounding” for “Surrounding”
Carbachol (Sigma) at each concentration diluted 100-fold was added accumulatively in a volume of 1/100 to the Magnus tube, and the change in the length of the colon tract was measured, and the length thereof in the absence of Carbachol was regarded as 0% contraction, and the length thereof in the presence of 1.44 μM Carbachol was regarded as 100% contraction. In the experiment, 3 samples were used.

[10] = 3 mg/kg oral, Table 8, n = 4 cages/group
[11] = 10 mg/kg oral, Table 8, n = 4 cages/group
[12] = against NECA, KCl + tetrodotoxin

With `CCNC(=O)[C@H]1O[C@@H](n2cnc3c(N)ncnc32)[C@H](O)[C@@H]1O` [NECA, 5′-N-ethylcarboxyamide adenosine] the “Contraction (%) Mean” value (colon tract [1]; NECA 0.1 μM) was 89.0%, the “Contraction (%) Mean” value (colon tract [1]; NECA 0.4 μM) was 75.3% and the “Contraction (%) Mean” value (colon tract [1]; NECA 14.4 μM) was 54.9%. The EC50 [2] was 10.4 µM.
In the case of `CCCn1c(=O)c2nc(C34CC5CC(CC3C5)C4)[nH]c2n(CCC)c1=O` [KW 3902], the “The number of fecalpellets/3 rats” value (SD IGS rats [3]; 0.3 mg/kg oral) is reported as 10.67 ± 2.08 fecalpellets/3 rats, the “The number of fecalpellets/3 rats” value (SD IGS rats [3]; 1 mg/kg oral) is reported as 14.50 ± 1.18 fecalpellets/3 rats and the “The number of fecalpellets/3 rats” value (SD IGS rats [3]; 3 mg/kg oral) is reported as 12.83 ± 1.66 fecalpellets/3 rats. The “Dose at which the defecation-promoting action reaches the maximum” value (SD IGS rats [3]; rat, oral) was 1 mg/kg, the “Defecation-promoting action (in words)” value (SD IGS rats [3]; rat, oral, Table 4) was “exhibits a defecation-promoting action” and the “Urine Volume (g/100 g body weight)” value ([4]; 0.3 mg/kg oral) was 2.08 ± 0.04 g/100 g body weight. For the same compound, the “Urine Volume (g/100 g body weight)” value ([4]; 1 mg/kg oral) was 2.15 ± 0.09 g/100 g body weight, the “Urine Volume (g/100 g body weight)” value ([4]; 3 mg/kg oral) was 2.01 ± 0.06 g/100 g body weight and the “Diuretic action (comparison in words)” value ([4]; rat, oral) was “stronger diuretic action than Compound I”. For the same compound, the “The number of fecalpellets/3 rats” value (SD IGS rats [5]; 1 mg/kg together with KW 6002 (1 mg/kg)) was 18.25 ± 1.49 fecalpellets/3 rats and the “The number of fecalpellets/3 rats” value (SD IGS rats [5]; 1 mg/kg, without KW 6002) was 9.00 ± 1.08 fecalpellets/3 rats.
For `Cn1c(=O)c2[nH]c(-c3ccccc3)nc2n(C)c1=O` [Example 8-PT, 8-phenyltheophylline], the “The number of fecalpellets/3 rats” value (SD IGS rats [6]; [10]) is given as 8.75 ± 1.75 fecalpellets/3 rats, the “The number of fecalpellets/3 rats” value (SD IGS rats [6]; [11]) is given as 13.75 ± 0.85 fecalpellets/3 rats and the “pA2 value of the antagonistic action” value [7] is given as 6.5. For the same compound, the pA2 value [2, 12] was 5.7.
For `OC[C@H]1O[C@@H](n2cnc3c(NC4CCCC4)ncnc32)[C@H](O)[C@@H]1O` [CPA], the EC50 [2] is given as 12.6 µM.
In the case of `CCCn1c(=O)c2[nH]c(C3CCCC3)nc2n(CCC)c1=O` [DPCPX], the “pA2 value of the antagonistic action” value [7] is given as 8.8, the pA2 value ([2]; against CPA, KCl + tetrodotoxin) is given as 7.0 and the pA2 value [2, 12] is given as 6.6.
With `CCCN1C(=O)N2CC(CC)N=C2c2[nH]c(C34CC5CC(CC3C5)C4)nc21` (stereo not shown) [KW 20274] the “Contraction (%) Mean” value (colon tract [8]; antagonist 0.1 μM) was −8.2%, the “Contraction (%) Mean” value (colon tract [8]; antagonist 0.4 μM) was −26.0% and the “Contraction (%) Mean” value (colon tract [8]; antagonist 1.4 μM) was −40.0%. For the same compound, the “Contraction (%) Mean” value (colon tract [8]; antagonist 4.4 μM) was −71.0% and the “Inhibition of the suppressing effect of NECA on the contraction (in words)” value (colon tract [8]; rat colon tract, Carbachol + NECA) was “did not show any inhibitory effect”.
With `Nc1nc(N)c(-c2ccncc2)c(-c2cccc(F)c2)n1` [Example 1, 6-(3-Flurophenyl)-5-(4-pyridyl)-2,4-pyrimidine diamine] the “The number of fecalpellets/3 rats” value (SD IGS rats [6]; 3 mg/kg oral, Table 10, n = 6 cages/group) was 14.83 ± 1.82 fecalpellets/3 rats and the “The number of fecalpellets/3 rats” value (SD IGS rats [6]; 10 mg/kg oral, Table 10, n = 6 cages/group) was 23.17 ± 2.94 fecalpellets/3 rats.
For `CCNC(=O)[C@H]1O[C@@H](n2cnc3c(N)nc(NCCc4ccc(CCC(=O)O)cc4)nc32)[C@H](O)[C@@H]1O` [CGS21680, 2-p-[2-carboxyethyl]phenetylamino-5′-N-ethylarboxyamide adenosine], the “Relaxing action (in words)” value [7] is given as “very weak” and the “Relaxing action (in words)” value ([2]; 1 μM, KCl + tetrodotoxin) is given as “did not act thereon”.
With `C[N+](C)(C)CCOC(N)=O` [Carbachol] the “Contraction (%) Mean” value (colon tract [9]; Carbachol 0.01 μM, 1.44 μM Carbachol = 100%) was 1.4%, the “Contraction (%) Mean” value (colon tract [9]; Carbachol 0.04 μM, 1.44 μM Carbachol = 100%) was 24.5% and the “Contraction (%) Mean” value (colon tract [9]; Carbachol 0.14 μM, 1.44 μM Carbachol = 100%) was 69.1%. The “Contraction (%) Mean” value (colon tract [9]; Carbachol 0.44 μM, 1.44 μM Carbachol = 100%) was 87.0% and the “Contraction (%) Mean” value (colon tract [9]; Carbachol 1.44 μM (defined as 100%)) was 100.0%.
For `Cn1cc(-n2c(-c3cccc(F)c3)nc3c(N)ncnc32)ccc1=O` [Compound II, 5-[6-amino-8-(3-fluorophenyl)-9H-9-purinyl]-1-methyl-1,2-di hydro-2-pyridinone], the “The number of fecalpellets/3 rats” value (SD IGS rats [6]; 1 mg/kg oral, Table 8, n = 4 cages/group) was 12.5 ± 1.44 fecalpellets/3 rats, the “The number of fecalpellets/3 rats” value (SD IGS rats [6]; [10]) was 18.5 ± 1.94 fecalpellets/3 rats and the “The number of fecalpellets/3 rats” value (SD IGS rats [6]; [11]) was 20.75 ± 1.70 fecalpellets/3 rats.
